What is called IC50 is the concentration at which inhibition is half-maximal. For orientation: half-life means how long it takes for the measured level to halve. A low value points to rapid decline. For orientation: inhibition means the percentage by which the read-out fell short of the control.

Data on 14 molecules can be found in article PMC6151695, “Novel Selective Estrogen Receptor Ligand Conjugates Incorporating Endoxifen-Combretastatin and Cyclofenil-Combretastatin Hybrid Scaffolds: Synthesis and Biochemical Evaluation” (Molecules : A Journal of Synthetic Chemistry and Natural …, 2017).

Entries after “also recorded” stand apart in the source; their conditions may differ. Where two headings read alike, the source gives them in different places.

Data set [1] deals with peripheral blood mononuclear cells (PBMCs). The data set can be described thus: Flow cytometry (propidium iodide) in PBMCs of healthy donors. The class given is cell-based, human. The settings on record: 10 µM, 72 h. As to the method: Next, the same cohort of compounds was tested on peripheral blood mononuclear cells (PBMCs) isolated from the blood of healthy donors. Cells were treated with 10 µM of each compound for 72 h and subjected to flow cytometry.
(§1) MCF-7 cells were seeded at a density of 5 × 10^4 cells/well in a 12-well plate and treated with the indicated compounds for 72 h. Samples were then centrifuged at 650× g for 5 min and resuspended in 100 µL ice-cold PBS. Ice-cold 70% (v/v) ethanol (1 mL) was then added to fix the samples overnight at 4 °C. Samples were subsequently centrifuged at 800× g for 10 min and resuspended in 200 µL PBS. RNase A (12.5 µL of 10 mg/mL) and propidium iodide (37.5 µL of 1 mg/ mL) were added to samples which were then incubated for 30 min at 37°C. Cell cycle analysis was performed at 488 nm using a FACS Calibur flow cytometer (Becton Dickinson, Franklin Lakes, NJ, USA). The Macintosh-based application CellQuest was then used to analyse the data of 10,000 gated cells once cell debris had been excluded. Data points represent the mean ± S.E.M. of three independent experiments.
Fresh peripheral blood was collected from healthy donors and diluted 1:3 with RPMI medium and added to half the equivalent volume of Lymphoprep. Samples were centrifuged at 750× g for 30 min to form a Ficoll gradient. The white buffy layer containing the peripheral blood mononuclear cells was removed, diluted to a volume of 50 mL with medium and centrifuged again for 10 min at 650× g. Cells were then seeded at a density of 1 × 10^6 cells in 1 mL of RPMI medium supplemented with 10% FBS, 2 mM L-glutamine and 100 U/mL penicillin and 100 µg/mL streptomycin.
(In general: A flow cytometer gives signals particle by particle.)

In data set [2] the test system is MCF-7 cells. Nature of the data set: Flow cytometry (propidium iodide) cell cycle and apoptosis analysis in MCF-7. The settings on record: for G2/M-arrest / apoptosis: MCF-7, 10 µM, 72 h; for apoptosis (in words): MCF-7, 72 h. The class given is cell-based, human. As to the method: Flow cytometry with propidium iodide stained cells was carried out to analyse the percentage of cells in each stage of the cell cycle and the number of apoptotic or dead cells. Samples were treated for 72 h at 10 µM. […] […].
as §1

Data set [3] relates to MCF-7 human breast cancer cell line. The data set can be described thus: Alamar Blue assay for antiproliferative effects. The class given is cell-based. On the technique in general: Resazurin is reduced to fluorescent resorufin, in cell work by metabolically active cells.
For a further data set, the target named is T1, human ERα (Homo sapiens, UniProt P03372).
T1 construct: purchased Invitrogen
T1 sequence (P03372 1-595): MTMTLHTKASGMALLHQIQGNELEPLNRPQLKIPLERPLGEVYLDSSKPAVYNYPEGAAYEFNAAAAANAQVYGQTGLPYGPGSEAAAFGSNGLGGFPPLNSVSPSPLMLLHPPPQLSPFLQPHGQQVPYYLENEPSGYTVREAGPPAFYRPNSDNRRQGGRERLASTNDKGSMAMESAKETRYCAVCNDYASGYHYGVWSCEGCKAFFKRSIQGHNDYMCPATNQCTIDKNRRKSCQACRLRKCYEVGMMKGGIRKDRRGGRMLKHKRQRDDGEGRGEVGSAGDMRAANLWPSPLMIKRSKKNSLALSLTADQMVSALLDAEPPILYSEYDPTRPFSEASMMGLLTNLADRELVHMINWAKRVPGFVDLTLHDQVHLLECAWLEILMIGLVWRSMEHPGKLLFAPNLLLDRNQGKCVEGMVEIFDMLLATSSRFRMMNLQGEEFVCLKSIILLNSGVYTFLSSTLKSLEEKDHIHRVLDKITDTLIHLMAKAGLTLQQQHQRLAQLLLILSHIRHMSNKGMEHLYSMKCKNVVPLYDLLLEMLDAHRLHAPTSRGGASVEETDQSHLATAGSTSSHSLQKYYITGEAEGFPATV
Nature of the data set: Estrogen receptor fluorescence polarisation competitive binding assay, ERα. The note with it: for Selectivity (α/β): ratio of RBA values ERα relative to ERβ; for ERα RBA: relative binding affinity, estradiol (5.7 nM) = 100%. A general note: Fluorescence polarisation rises when a labelled molecule tumbles more slowly, as on binding a larger partner.

A further data set concerns the target T2, human ERβ (Homo sapiens, UniProt Q92731).
T2 construct: purchased Invitrogen
Nature of the data set: Estrogen receptor fluorescence polarisation competitive binding assay, ERβ.

The test system of data set [4] is MCF-7 cells. Nature of the data set: Lactate dehydrogenase (LDH) assay for cytotoxicity.
The nature of data set [5]: HPLC stability study in phosphate buffer. The note with it: half-life, pH range 4–9.
Where [6] appears, read: Homo sapiens, MCF7, 72 h, read-out: IC50 (μM), antiproliferative effects.
[7] abbreviates: competitive binding, fluorescence polarisation, read-out: ERα IC50.
Where [8] appears, read: competitive binding, fluorescence polarisation, read-out: ERβ IC50.
[9] abbreviates: Homo sapiens, MCF7, 72 h, MCF-7, 72 h, Alamar Blue, read-out: IC50 (μM), antiproliferative effects.

T2 sequence (Q92731 whole entry): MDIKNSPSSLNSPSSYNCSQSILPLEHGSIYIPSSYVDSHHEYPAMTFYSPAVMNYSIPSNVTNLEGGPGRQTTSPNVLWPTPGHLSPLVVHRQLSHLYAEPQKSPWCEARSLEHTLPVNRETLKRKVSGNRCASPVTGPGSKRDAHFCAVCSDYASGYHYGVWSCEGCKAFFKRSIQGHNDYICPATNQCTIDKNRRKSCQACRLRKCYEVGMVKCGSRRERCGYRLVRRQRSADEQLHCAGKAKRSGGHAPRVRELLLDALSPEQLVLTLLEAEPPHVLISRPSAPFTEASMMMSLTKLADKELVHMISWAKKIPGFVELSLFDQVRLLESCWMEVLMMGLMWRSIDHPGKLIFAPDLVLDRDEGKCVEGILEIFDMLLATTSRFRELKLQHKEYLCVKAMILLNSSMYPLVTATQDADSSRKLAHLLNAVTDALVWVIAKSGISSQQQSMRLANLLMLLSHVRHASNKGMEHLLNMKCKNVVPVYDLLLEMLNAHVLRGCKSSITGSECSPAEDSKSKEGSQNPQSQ

Turning to `COc1ccc(/C=C(/C(=O)N(C)CCOc2ccc(C(=C3CCCCCCC3)c3ccc(O)cc3)cc2)c2cc(OC)c(OC)c(OC)c2)cc1O` [Compound 13d, (E)-N-(2-(4-(Cyclooctylidene(4-hydroxyphenyl)methyl)phenoxy)ethyl)-3-(3-hydroxy-4-methoxyphenyl)-N-methyl-2-(3,4,5-trimethoxyphenyl)acrylamide], in data set [1], the “apoptosis / toxic effects in PBMCs (in words)” value (“apoptosis / toxic effects” below) is “lack of toxicity”. Further, in the data set on MCF-7 cells [2], the G2/M-arrest was determined as 27%, the apoptosis amounted to 36% and the “apoptosis (in words)” value was “potently induce apoptosis”. For the same molecule, in data set [3] (setting [6]), the IC50 stood at 0.346 µM.

In the case of `CCC(=C(c1ccc(O)cc1)c1ccc(OCCN(C)C(=O)/C(=C/c2cc(OC)c(OC)c(OC)c2)c2ccc(OC)c(O)c2)cc1)c1ccccc1` (mixture of isomers) [Compound 3i, (E/Z)-2-(3-Hydroxy-4-methoxyphenyl)-N-(2-(4-((Z)-1-(4-hydroxyphenyl)-2-phenylbut-1-en-1-yl)phenoxy)-ethyl)-N-methyl-3-(3,4,5-trimethoxyphenyl)acrylamide], the “apoptosis / toxic effects” value in data set [1] was “lack of toxicity”. The “apoptosis (in words)” value in the data set with MCF-7 cells [2] is “potently induce apoptosis”. Moreover, the IC50 on human ERα (setting [7]) is 182 nM; on human ERβ (setting [8]), 436 nM; in data set [3] (setting [9]) it was 4.2 µM. For the same molecule, the “Selectivity (α/β)” value on human ERα is 2.44. Also, the “ERα RBA” value on human ERα amounted to 3.13%.

In the case of `CNCCOc1ccc(C(=C2CCC(C)CC2)c2ccc(O)cc2)cc1` (stereo not shown) [Compound 11e, 4-((4-(2-(Methylamino)ethoxy)phenyl)(4-methylcyclohexaneylidene)methyl)phenol], the “apoptosis / toxic effects” value in data set [1] is given as “induced apoptosis in PBMCs”. For the same molecule, in the data set with MCF-7 cells [2], the apoptosis amounted to 76% and the “apoptosis (in words)” value is “potently induce apoptosis”. Besides, at human ERα (setting [7]), the half-inhibitory concentration (IC50) was 3160 nM. Besides, at human ERα, the “Selectivity (α/β)” value amounted to 0.02 and the “ERα RBA” value was found to be 0.180%. Besides, the IC50 on human ERβ (setting [8]) is 67 nM. Besides, the IC50 in data set [3] (setting [9]) was 1.77 µM.

On to `COc1ccc(/C=C(/C(=O)N(C)CCOc2ccc(C(=C3CCCCCC3)c3ccc(O)cc3)cc2)c2cc(OC)c(OC)c(OC)c2)cc1O` [Compound 13c, (E)-N-(2-(4-(Cycloheptylidene(4-hydroxyphenyl)methyl)phenoxy)ethyl)-3-(3-hydroxy-4-methoxyphenyl)-N-methyl-2-(3,4,5-trimethoxyphenyl)acrylamide], for which the apoptosis with MCF-7 cells [2] stood at 20%. Also, the IC50 in data set [3] (setting [9]) is 2.5 µM.

On to `COc1ccc(/C=C\c2cc(OC)c(OC)c(OC)c2)cc1O` [CA4, Combretastatin A-4, reference compound], for which, in the data set with MCF-7 cells [4], the “cytotoxicity (LDH assay)” value was 13%. Besides, the IC50 in data set [3] (setting [9]) came to 0.008 µM.

For the molecule `CNCCOc1ccc(C(=C2CCCCCC2)c2ccc(O)cc2)cc1` [Compound 11c, 4-(Cycloheptylidene(4-(2-(methylamino)ethoxy)phenyl)methyl)phenol], the “apoptosis / toxic effects” value in data set [1] is listed as “induced apoptosis in PBMCs”. Besides, in the data set with MCF-7 cells [2], the apoptosis worked out at 79.7 ± 5.2% and the “apoptosis (in words)” value is on record as “potently induce apoptosis”. For the same molecule, the IC50 on human ERα (setting [7]) was 1740 nM. On human ERα, the “Selectivity (α/β)” value is 0.12 and the “ERα RBA” value is on record as 0.328%. For the same molecule, the half-maximal inhibitory concentration (IC50) at human ERβ (setting [8]) was 199 nM. The IC50 in data set [3] (setting [9]) turned out to be 1.38 µM.

Consider `CNCCOc1ccc(C(=C2CCCCCCC2)c2ccc(O)cc2)cc1` [Compound 11d, 4-(Cyclooctylidene(4-(2-(methylamino)ethoxy)phenyl)methyl)phenol], for which the IC50 on human ERα (setting [7]) came to 170 nM; at human ERβ (setting [8]), 112 nM; in data set [3] (setting [9]), 3.23 µM. In addition, the “Selectivity (α/β)” value on human ERα worked out at 0.67. Moreover, the “ERα RBA” value at human ERα is given as 3.35%.

Consider “N-(2-{4-[1,2-Bis-(4-hydroxyphenyl)but-1-enyl]phenoxy}ethyl)-N-methylsuccinamic acid [Compound 14c]”, for which the IC50 at human ERα (setting [7]) is 11.3 nM. Besides, the “increase in binding affinity compared to 4-hydroxytamoxifen” value at human ERα (in both ER isoforms) is “approximately 3 fold”. Also, at human ERα, the “Selectivity (α/β)” value came to 0.60 and the “ERα RBA” value is 50.44%. Besides, the IC50 at human ERβ (setting [8]) is 6.7 nM.

Turning to `CC/C(=C(\c1ccccc1)c1ccc(OCCN(C)C(=O)CCC(=O)Oc2cc(/C=C(/C(=O)OC)c3cc(OC)c(OC)c(OC)c3)ccc2OC)cc1)c1ccccc1` [Compound 16c, N-{2-[4-((Z)-1,2-Diphenylbut-1-enyl)phenoxy]ethyl}-N-methylsuccinamic acid 2-methoxy-5-[(E)-2-methoxycarbonyl-2-(3,4,5-trimethoxyphenyl)vinyl]phenyl ester], the IC50 on human ERα (setting [7]) was 70.9 nM. Also, on human ERα, the “Selectivity (α/β)” value was 1.29 and the “ERα RBA” value is recorded as 8.04%. For the same molecule, on human ERβ (setting [8]), the IC50 stood at 90.1 nM. Further, in data set [5], the half-life at 14.6 µg/mL was over 20 h.

As to `COc1ccc(/C=C(/C(=O)N(C)CCOc2ccc(C(=C3CCC(C)CC3)c3ccc(O)cc3)cc2)c2cc(OC)c(OC)c(OC)c2)cc1O` (stereo not shown) [Compound 13e, (E)-3-(3-Hydroxy-4-methoxyphenyl)-N-(2-(4-((4-hydroxyphenyl)(4-methylcyclohexaneylidene)methyl)-phenoxy)ethyl)-N-methyl-2-(3,4,5-trimethoxyphenyl) acrylamide], the “apoptosis / toxic effects” value in data set [1] is “lack of toxicity”. Moreover, in the data set on MCF-7 cells [2], the G2/M-arrest is given as 18%, the apoptosis is given as 48% and the “apoptosis (in words)” value is reported as “potently induce apoptosis”. In addition, at human ERα, the IC50 was 19 nM, the “Selectivity (α/β)” value was found to be 12.3 and the “ERα RBA” value was 30%. The “selectivity towards ERα over ERβ” value on human ERα (binding affinity preference) was found to be 12 fold. On human ERβ, this molecule came in with an IC50 of 229 nM. In addition, in data set [3] (setting [6]), the IC50 is 0.182 µM. The IC50 in data set [3] (Homo sapiens, MCF7, read-out: IC50, antiproliferative activity) worked out at 0.187 µM.

Regarding `CCC(=C(c1ccccc1)c1ccc(OCCN(C)C(=O)CCC(=O)O)cc1)c1ccccc1` [Compound 14a, N-{2-[4-(1,2-Diphenylbut-1-enyl)phenoxy]ethyl}-N-methylsuccinamic acid], the IC50 in data set [3] (setting [9]) was over 50 µM. Moreover, in data set [3] (MCF-7), the “antiproliferative activity (in words)” value is recorded as “very low antiproliferative activity; also recorded: no significant antiproliferative activity”.

`CCC(=C(c1ccc(O)cc1)c1ccc(OCCN(C)C(=O)/C(=C/c2cc(OC)c(O)c(OC)c2)c2cc(OC)c(OC)c(OC)c2)cc1)c1ccccc1` (mixture of isomers) [Compound 3j, (E/Z)-3-(4-Hydroxy-3,5-dimethoxyphenyl)-N-(2-(4-((Z)-1-(4-hydroxyphenyl)-2-phenylbut-1-en-1-yl)-phenoxy)ethyl)-N-methyl-2-(3,4,5-trimethoxyphenyl)acrylamide]: the IC50 in data set [3] (setting [9]) is 11.8 µM; in data set [3] (MCF-7, 72 h, Alamar Blue, read-out: IC50 (μM), antiproliferative effects), 11.8 µM.

For `COc1ccc(/C(=C\c2cc(OC)c(OC)c(OC)c2)C(N)=O)cc1` [Compound 3n, (E)-2-(4-Methoxyphenyl)-3-(3,4,5-trimethoxyphenyl)acrylamide], the inhibition at 1 µM in data set [3] (Homo sapiens, MCF7, read-out: growth inhibition) turned out to be 20%.

As to `CCC(=C(c1ccc(O)cc1)c1ccc(OCCN(C)C(=O)/C(=C/c2ccc(O)c(O)c2)c2cc(OC)c(OC)c(OC)c2)cc1)c1ccccc1` (mixture of isomers) [Compound 3e, (E/Z)-3-(3,4-Dihydroxyphenyl)-N-(2-(4-((Z)-1-(4-hydroxyphenyl)-2-phenylbut-1-en-1-yl)phenoxy)ethyl)-N-methyl-2-(3,4,5-trimethoxyphenyl)acrylamide], the half-maximal inhibitory concentration (IC50) in data set [3] (setting [9]) is over 50 µM.
